In US6369083B1, “2-methoxyimino-2 (pyrinyloxymethyl) phenyl acetamides with polyether derivatives on the pyridine ring” (Dow AgroSciences LLC, priority 1998, dated 2002):

Legend:
Assay type in all cases: in vivo
Plasmopara viticola = assay: Downy Mildew of Grape (PLASVI), 96 hour protectant; details: grape vines (cultivar Carignane), sprayed at 100 ppm, inoculated after 96 hours (protectant)
Experimental: Compound Formulation: […] Final treatment volumes were obtained by adding nine volumes 0.05kOO aqueous Tween-20 or Triton X-100, depending upon the pathogen. Downy Mildew of Grape (Plasmogara viticola-[…]) (96 Hour Protectant): Vines (cultivar Carignane) were grown from seed in a soilless peat-based potting mixture (Metromix) until the seedlings were 10-20 cm tall. These plants were then sprayed to run off with the test compound at a rate of 100 ppm. After 96 hours the test plants were inoculated by spraying with an aqueous sporangia suspension of Plasmopara viticola. The plants were then transferred to the greenhouse until disease developed on the untreated control plants. The following table presents the activity of typical compounds of the present invention when evaluated in these experiments. The effectiveness of the test compounds in controlling disease was rated using the following scale: […]

Erysiphe graminis = assay: Powdery Mildew of Wheat (ERYSGT); details: wheat (cultivar Monon), inoculated, sprayed at 25 ppm after 48 hours
Experimental: Compound Formulation: […] Final treatment volumes were obtained by adding nine volumes 0.05kOO aqueous Tween-20 or Triton X-100, depending upon the pathogen. Powdery Mildew of Wheat (Erysiphe graminis-[…]): Wheat (cultivar Monon) was grown in a soilless peat-based potting mixture (Metromix) until the seedlings were 1-2 leaf (BBCH 12). These plants were then inoculated with Erysiphe graminis by dusting spores from stock plants onto the test plants. After 48 hours the plants were sprayed to run off with the test compound at a rate of 25 ppm and then kept in the greenhouse until disease developed on the untreated control plants. The following table presents the activity of typical compounds of the present invention when evaluated in these experiments. The effectiveness of the test compounds in controlling disease was rated using the following scale: […]

Septoria tritici = assay: Septoria leaf spot (SEPTTR); details: wheat (cultivar Monon), sprayed at 100 ppm, inoculated after 24 hours
Experimental: Compound Formulation: […] Final treatment volumes were obtained by adding nine volumes 0.05kOO aqueous Tween-20 or Triton X-100, depending upon the pathogen. Septoria leaf spot (Septoria tritici-[…]): Wheat (cultivar Monon) was grown from seed in a soilless peat-based potting mixture (Metromix) until the seedlings were 1-2 leaf (BECH 12). These plants were then sprayed to run off with the test compound at a rate of 100 ppm. After 24 hours the test plants were inoculated with an aqueous spore suspension of Septoria tritici. The plants were then transferred to the greenhouse until disease developed on the untreated control plants. The following table presents the activity of typical compounds of the present invention when evaluated in these experiments. The effectiveness of the test compounds in controlling disease was rated using the following scale: […]

| Structure (SMILES) | PLASVI control of plant disease (Plasmopara viticola) | ERYSGT control of plant disease (Erysiphe graminis) | SEPTTR control of plant disease (Septoria tritici) |
| --- | --- | --- | --- |
| CNC(=O)C(=NOC)c1ccccc1COc1nc(OCc2ccco2)c(Cl)cc1Cl [Compound 3] | ++ (++ = 75-100 % control of plant disease) | + (+ = 25-74% control of plant disease) |  |
| CNC(=O)C(=NOC)c1ccccc1COc1nc(OCc2ccco2)c(Cl)cc1Cl [Compound 4] | − (− = 0-24% control of plant disease) | − (− = 0-24% control of plant disease) |  |
| CNC(=O)C(=NOC)c1ccccc1COc1cccc(OCC2COC(C)(C(F)(F)F)O2)n1 (stereo not drawn) [Compound 6] |  | ++ (++ = 75-100 % control of plant disease) |  |
| CNC(=O)C(=NOC)c1ccccc1COc1cccc(OCC2(C)COC2)n1 [Compound 7] | + (+ = 25-74% control of plant disease) | ++ (++ = 75-100 % control of plant disease) |  |
| CNC(=O)C(=NOC)c1ccccc1COc1cccc(OCc2ccco2)n1 [Compound 8] | ++ (++ = 75-100 % control of plant disease) | − (− = 0-24% control of plant disease) |  |
| CNC(=O)C(=NOC)c1ccccc1COc1cccc(OCC2CCCCO2)n1 (stereo not drawn) [Compound 9] | ++ (++ = 75-100 % control of plant disease) | + (+ = 25-74% control of plant disease) |  |
| CNC(=O)C(=NOC)c1ccccc1COc1cccc(OCC2CCCO2)n1 (stereo not drawn) [Compound 10] | + (+ = 25-74% control of plant disease) | ++ (++ = 75-100 % control of plant disease) |  |
| CNC(=O)C(=NOC)c1ccccc1COc1cccc(OCC2COC(C(F)(F)F)(C(F)(F)F)O2)n1 (stereo not drawn) [Compound 11] | ++ (++ = 75-100 % control of plant disease) |  |  |
| CNC(=O)C(=NOC)c1ccccc1COc1cccc(Sc2nnc(SC)s2)n1 [Compound 12] | − (− = 0-24% control of plant disease) | − (− = 0-24% control of plant disease) |  |
| CNC(=O)C(=NOC)c1ccccc1COc1cccc(Sc2cccs2)n1 [Compound 15] | ++ (++ = 75-100 % control of plant disease) | ++ (++ = 75-100 % control of plant disease) |  |
| CCOCCNc1nc(OCc2ccccc2C(=NOC)C(=O)NC)c(Cl)cc1Cl [Compound 23] | ++ (++ = 75-100 % control of plant disease) | ++ (++ = 75-100 % control of plant disease) |  |
| CNC(=O)C(=NOC)c1ccccc1COc1cccc(OCCOC)n1 [Compound 25] | ++ (++ = 75-100 % control of plant disease) | ++ (++ = 75-100 % control of plant disease) |  |
| CCCOC(C)COc1nc(OCc2ccccc2C(=NOC)C(=O)NC)c(Cl)cc1Cl (stereo not drawn) [Compound 26] | + (+ = 25-74% control of plant disease) | ++ (++ = 75-100 % control of plant disease) |  |
| CNC(=O)C(=NOC)c1ccccc1COc1nc(OCC(C)OC)c(Cl)cc1Cl (stereo not drawn) [Compound 28] | ++ (++ = 75-100 % control of plant disease) | ++ (++ = 75-100 % control of plant disease) |  |
| CCCOCCOc1nc(OCc2ccccc2C(=NOC)C(=O)NC)c(Cl)cc1Cl [Compound 29] | ++ (++ = 75-100 % control of plant disease) | + (+ = 25-74% control of plant disease) |  |
| CNC(=O)C(=NOC)c1ccccc1COc1cccc(OCC(C)OC)n1 (stereo not drawn) [Compound 30] | ++ (++ = 75-100 % control of plant disease) | ++ (++ = 75-100 % control of plant disease) |  |
| CCCOCCOc1cccc(OCc2ccccc2C(=NOC)C(=O)NC)n1 [Compound 31] | ++ (++ = 75-100 % control of plant disease) | ++ (++ = 75-100 % control of plant disease) |  |
| CCCOC(C)COc1cccc(OCc2ccccc2C(=NOC)C(=O)NC)n1 (stereo not drawn) [Compound 32] |  | ++ (++ = 75-100 % control of plant disease) |  |
| CNC(=O)C(=NOC)c1ccccc1COc1nc(OCCOC)c(Cl)cc1Cl [Compound 33] | ++ (++ = 75-100 % control of plant disease) | + (+ = 25-74% control of plant disease) |  |
| CNC(=O)C(=NOC)c1ccccc1COc1cccc(SCc2ccc(OC)cc2)n1 [Compound 34] | ++ (++ = 75-100 % control of plant disease) | ++ (++ = 75-100 % control of plant disease) |  |
| CCCOCCOc1cccc(OCc2ccccc2C(=NOC)C(=O)NC)n1 [Compound 36] | ++ (++ = 75-100 % control of plant disease) | + (+ = 25-74% control of plant disease) |  |

| Structure (SMILES) | PLASVI control of plant disease (Plasmopara viticola) | ERYSGT control of plant disease (Erysiphe graminis) | SEPTTR control of plant disease (Septoria tritici) |
| --- | --- | --- | --- |
| CNC(=O)C(=NOC)c1ccccc1COc1cccc(Oc2ccc(OC)cc2)n1 [Compound 38] |  | ++ (++ = 75-100 % control of plant disease) |  |
| CNC(=O)C(=NOC)c1ccccc1COc1cccc(Sc2cccc(OC)c2)n1 [Compound 39] |  | ++ (++ = 75-100 % control of plant disease) |  |
| CNC(=O)C(=NOC)c1ccccc1COc1cccc(Sc2ccccc2OC(F)(F)F)n1 [Compound 41] | ++ (++ = 75-100 % control of plant disease) | + (+ = 25-74% control of plant disease) |  |
| CNC(=O)C(=NOC)c1ccccc1COc1cccc(Sc2ccccc2OC)n1 [Compound 42] | ++ (++ = 75-100 % control of plant disease) | ++ (++ = 75-100 % control of plant disease) |  |
| CNC(=O)C(=NOC)c1ccccc1COc1cccc(Sc2ccc(SC)cc2)n1 [Compound 43] | ++ (++ = 75-100 % control of plant disease) | − (− = 0-24% control of plant disease) |  |
| CCSCCOc1cccc(OCc2ccccc2C(=NOC)C(=O)NC)n1 [Compound 45] | ++ (++ = 75-100 % control of plant disease) | + (+ = 25-74% control of plant disease) |  |
| CCCCOCCOc1cccc(OCc2ccccc2C(=NOC)C(=O)NC)n1 [Compound 46] | ++ (++ = 75-100 % control of plant disease) | + (+ = 25-74% control of plant disease) |  |
| CCCCSCCOc1cccc(OCc2ccccc2C(=NOC)C(=O)NC)n1 [Compound 47] | ++ (++ = 75-100 % control of plant disease) | ++ (++ = 75-100 % control of plant disease) |  |
| CCCCSCCOc1cccc(OCc2ccccc2C(=NOC)C(=O)NC)n1 [Compound 48] | + (+ = 25-74% control of plant disease) | − (− = 0-24% control of plant disease) |  |
| CNC(=O)C(=NOC)c1ccccc1COc1cccc(OCCOc2ccccc2)n1 [Compound 49] | ++ (++ = 75-100 % control of plant disease) | ++ (++ = 75-100 % control of plant disease) |  |
| CCSCCSc1cccc(OCc2ccccc2C(=NOC)C(=O)NC)n1 [Compound 50] | ++ (++ = 75-100 % control of plant disease) | − (− = 0-24% control of plant disease) |  |
| CNC(=O)C(=NOC)c1ccccc1COc1cccc(OCCOCc2ccccc2)n1 [Compound 51] | ++ (++ = 75-100 % control of plant disease) | ++ (++ = 75-100 % control of plant disease) |  |
| CNC(=O)C(=NOC)c1ccccc1COc1cccc(SCc2ccc(OC)cc2)n1 [Compound 57] |  |  | ++ (++ = 75-100 % control of plant disease) |
| CCCOCCOc1cccc(OCc2c(F)cccc2C(=NOC)C(=O)NC)n1 [Compound 59] | ++ (++ = 75-100 % control of plant disease) |  |  |
| CCOCCOc1cccc(OCc2c(Cl)cccc2C(=NOC)C(=O)NC)n1 [Compound 63] | ++ (++ = 75-100 % control of plant disease) |  |  |
| CCOc1cccc(Oc2cccc(OCc3ccccc3C(=NOC)C(=O)NC)n2)c1 [Compound 67] | ++ (++ = 75-100 % control of plant disease) |  |  |
| CNC(=O)C(=NOC)c1ccccc1COc1cccc(OCCCOCCCOC)n1 [Compound 71] |  |  | − (− = 0-24% control of plant disease) |
| C=CC(COC)Oc1cccc(OCc2ccccc2C(=NOC)C(=O)NC)n1 (stereo not drawn) [Compound 72] |  |  | − (− = 0-24% control of plant disease) |
| CNC(=O)C(=NOC)c1ccccc1COc1cccc(OCCOC(CCC#N)OC)n1 (stereo not drawn) [Compound 73] |  |  | − (− = 0-24% control of plant disease) |
| CCCOc1ccc(Sc2cccc(OCc3ccccc3C(=NOC)C(=O)NC)n2)cc1 [Compound 87] |  | ++ (++ = 75-100 % control of plant disease) |  |
